Source: ChEMBL document CHEMBL1159020, “Phytotoxins of Ascochyta hyalospora, Causal Agent of Lambsquarters Leaf Spot” (1992)
The source made the active and inactive calls. The calls are words filed in the database; no cut-off is given here.

What was measured:
[1] = test system: Sorghum halepense; assay: Phytotoxicity against Johnson grass assessed as leaf necrotic area at 50 ug by detached leaf assay; type: functional
[2] = test system: Datura stramonium; assay: Phytotoxicity against Jimsonweed assessed as leaf necrotic area at 25 ug by detached leaf assay; type: functional
[3] = test system: Aspergillus flavus; assay: Antimicrobial activity against Aspergillus flavus at 500 ug by antibiotic disk assay; type: functional; details: read-out: Diameter of inhibition zone
[4] = test system: Sida spinosa; assay: Phytotoxicity against Prickly sida assessed as leaf necrotic area at 50 ug by detached leaf assay; type: functional
[5] = test system: Penicillium chrysogenum; assay: Antimicrobial activity against Penicillium notatum at 1000 ug by antibiotic disk assay; type: functional; details: read-out: Diameter of inhibition zone
[6] = test system: Nasturtium officinale; assay: Phytotoxicity against watercress assessed as leaf necrotic area at 50 ug by detached leaf assay; type: functional
[7] = test system: Sorghum halepense; assay: Phytotoxicity against Johnson grass assessed as leaf necrotic area at 25 ug by detached leaf assay; type: functional
[8] = test system: Curtobacterium flaccumfaciens; assay: Antimicrobial activity against Corynebacterium flaccumfaciens at 500 ug by antibiotic disk assay; type: functional; details: read-out: Diameter of inhibition zone
[9] = test system: Agrobacterium tumefaciens; assay: Antimicrobial activity against Agrobacterium tumefaciens at 1000 ug by antibiotic disk assay; type: functional; details: read-out: Diameter of inhibition zone
[10] = test system: Colletotrichum acutatum; assay: Antimicrobial activity against Colletotrichum acutatum at 500 ug by antibiotic disk assay; type: functional; details: read-out: Diameter of inhibition zone
[11] = test system: Ipomoea; assay: Phytotoxicity against Ipomoea sp. assessed as leaf necrotic area at 50 ug by detached leaf assay; type: functional
[12] = test system: Escherichia coli; assay: Antimicrobial activity against Escherichia coli at 500 ug by antibiotic disk assay; type: functional; details: read-out: Diameter of inhibition zone
[13] = test system: Ambrosia artemisiifolia; assay: Phytotoxicity against rag weed assessed as leaf necrotic area at 50 ug by detached leaf assay; type: functional
[14] = test system: Sorghum halepense; assay: Phytotoxicity against Johnson grass assessed as leaf necrotic area at 100 ug by detached leaf assay; type: functional
[15] = test system: Ipomoea; assay: Phytotoxicity against Ipomoea sp. assessed as leaf necrotic area at 25 ug by detached leaf assay; type: functional
[16] = test system: Senna obtusifolia; assay: Phytotoxicity against Sicklepod assessed as leaf necrotic area at 50 ug by detached leaf assay; type: functional
[17] = test system: Sida spinosa; assay: Phytotoxicity against Prickly sida assessed as leaf necrotic area at 100 ug by detached leaf assay; type: functional
[18] = test system: Colletotrichum acutatum; assay: Antimicrobial activity against Colletotrichum acutatum at 1000 ug by antibiotic disk assay; type: functional; details: read-out: Diameter of inhibition zone
[19] = test system: Nasturtium officinale; assay: Phytotoxicity against Nasturtium officinale assessed as leaf necrotic area at 100 ug by detached leaf assay; type: functional
[20] = test system: Ambrosia artemisiifolia; assay: Phytotoxicity against rag weed assessed as leaf necrotic area at 25 ug by detached leaf assay; type: functional
[21] = test system: Chenopodium album; assay: Phytotoxicity against Lamb's quarters assessed as leaf necrotic area at 25 ug by detached leaf assay; type: functional
[22] = test system: Aspergillus flavus; assay: Antimicrobial activity against Aspergillus flavus at 1000 ug by antibiotic disk assay; type: functional; details: read-out: Diameter of inhibition zone
[23] = test system: Sorghum bicolor; assay: Phytotoxicity against Sorghum bicolor assessed as inhibition of root growth at 1000 ug after 24 hrs root growth assay; type: functional, organism-based
[24] = test system: Nasturtium officinale; assay: Phytotoxicity against watercress assessed as leaf necrotic area at 25 ug by detached leaf assay; type: functional
[25] = test system: Datura stramonium; assay: Phytotoxicity against Jimsonweed assessed as leaf necrotic area at 50 ug by detached leaf assay; type: functional
[26] = test system: Chenopodium album; assay: Phytotoxicity against Lamb's quarters assessed as electrolyte leakage at 500 to 1000 ug/ml; type: functional, organism-based
[27] = test system: Senna obtusifolia; assay: Phytotoxicity against Sicklepod assessed as leaf necrotic area at 25 ug by detached leaf assay; type: functional
[28] = test system: Chenopodium album; assay: Phytotoxicity against Lamb's quarters assessed as leaf necrotic area at 50 ug by detached leaf assay; type: functional
[29] = test system: Sida spinosa; assay: Phytotoxicity against Prickly sida assessed as leaf necrotic area at 25 ug by detached leaf assay; type: functional
[30] = test system: Sorghum bicolor; assay: Phytotoxicity against Sorghum bicolor assessed as leaf necrotic area at 50 ug by detached leaf assay; type: functional
[31] = test system: Sorghum bicolor; assay: Phytotoxicity against Sorghum bicolor assessed as leaf necrotic area at 100 ug by detached leaf assay; type: functional
[32] = test system: Pectobacterium carotovorum; assay: Antimicrobial activity against Erwinia carotovora at 1000 ug by antibiotic disk assay; type: functional; details: read-out: Diameter of inhibition zone
[33] = test system: Ipomoea; assay: Phytotoxicity against Ipomoea sp. assessed as leaf necrotic area at 100 ug by detached leaf assay; type: functional
[34] = test system: Poa nemoralis; assay: Phytotoxicity against bent grass assessed as leaf necrotic area at 25 ug by detached leaf assay; type: functional
[35] = test system: Escherichia coli; assay: Antimicrobial activity against Escherichia coli at 1000 ug by antibiotic disk assay; type: functional; details: read-out: Diameter of inhibition zone
[36] = test system: Sorghum bicolor; assay: Phytotoxicity against Sorghum bicolor assessed as leaf necrotic area at 25 ug by detached leaf assay; type: functional
[37] = test system: Pectobacterium carotovorum; assay: Antimicrobial activity against Erwinia carotovora at 500 ug by antibiotic disk assay; type: functional; details: read-out: Diameter of inhibition zone
[38] = test system: Datura stramonium; assay: Phytotoxicity against Jimsonweed assessed as leaf necrotic area at 100 ug by detached leaf assay; type: functional
[39] = test system: Ambrosia artemisiifolia; assay: Phytotoxicity against rag weed assessed as leaf necrotic area at 100 ug by detached leaf assay; type: functional
[40] = test system: Curtobacterium flaccumfaciens; assay: Antimicrobial activity against Corynebacterium flaccumfaciens at 1000 ug by antibiotic disk assay; type: functional; details: read-out: Diameter of inhibition zone
[41] = test system: Chenopodium album; assay: Phytotoxicity against Lamb's quarters assessed as leaf necrotic area at 100 ug by detached leaf assay; type: functional
[42] = test system: Agrobacterium tumefaciens; assay: Antimicrobial activity against Agrobacterium tumefaciens at 500 ug by antibiotic disk assay; type: functional; details: read-out: Diameter of inhibition zone
[43] = test system: Senna obtusifolia; assay: Phytotoxicity against Sicklepod assessed as leaf necrotic area at 100 ug by detached leaf assay; type: functional
[44] = test system: Poa nemoralis; assay: Phytotoxicity against bent grass assessed as leaf necrotic area at 50 ug by detached leaf assay; type: functional
[45] = test system: Penicillium chrysogenum; assay: Antimicrobial activity against Penicillium notatum at 500 ug by antibiotic disk assay; type: functional; details: read-out: Diameter of inhibition zone
[46] = test system: Datura stramonium; assay: Phytotoxicity against Jimsonweed assessed as leaf necrotic area at 10 ug by detached leaf assay; type: functional
[47] = test system: Sida spinosa; assay: Phytotoxicity against Prickly sida assessed as leaf necrotic area at 10 ug by detached leaf assay; type: functional
[48] = test system: Chenopodium album; assay: Phytotoxicity against Lamb's quarters assessed as leaf necrotic area at 10 ug by detached leaf assay; type: functional
[49] = test system: Sorghum bicolor; assay: Phytotoxicity against Sorghum bicolor assessed as leaf necrotic area at 10 ug by detached leaf assay; type: functional
[50] = test system: Senna obtusifolia; assay: Phytotoxicity against Sicklepod assessed as leaf necrotic area at 10 ug by detached leaf assay; type: functional
[51] = test system: Sorghum halepense; assay: Phytotoxicity against Johnson grass assessed as leaf necrotic area at 10 ug by detached leaf assay; type: functional
[52] = test system: Ambrosia artemisiifolia; assay: Phytotoxicity against rag weed assessed as leaf necrotic area at 10 ug by detached leaf assay; type: functional
[53] = test system: Ipomoea; assay: Phytotoxicity against Ipomoea sp. assessed as leaf necrotic area at 10 ug by detached leaf assay; type: functional
[54] = test system: Nasturtium officinale; assay: Phytotoxicity against watercress assessed as leaf necrotic area at 10 ug by detached leaf assay; type: functional
[55] = test system: Poa nemoralis; assay: Phytotoxicity against bent grass assessed as leaf necrotic area at 10 ug by detached leaf assay; type: functional

CCC(C)c1occ2c(=O)c(C(=O)O)c(O)cc-2c1C (configuration not stated) [ASCOCHYTINE]
Activity [1]: 10 mm2
Activity [2]: 11 mm2
zone of inhibition at 500 µg/disc [3]: 0 mm
Activity [4]: 20 mm2
zone of inhibition at 1000 µg/disc [5]: 10 mm
Activity [6]: 5 mm2
Activity [7]: 10 mm2
zone of inhibition at 500 µg/disc [8]: 30 mm
zone of inhibition at 1000 µg/disc [9]: 35 mm
zone of inhibition at 500 µg/disc [10]: 18 mm
Activity [11]: 9 mm2
zone of inhibition at 500 µg/disc [12]: 8 mm
Activity [13]: 5 mm2
Activity [14]: 24 mm2
Activity [15]: 8 mm2
Activity [16]: 13 mm2
Activity [17]: 35 mm2
zone of inhibition at 1000 µg/disc [18]: 20 mm
Activity [19]: 20 mm2
Activity [20]: 5 mm2
Activity [21]: 5 mm2
zone of inhibition at 1000 µg/disc [22]: 0 mm
Activity [23]: Active
Activity [24]: 2 mm2
Activity [25]: 15 mm2
Activity [26]: Active
Activity [27]: 9 mm2
Activity [28]: 11 mm2
Activity [29]: 6 mm2
Activity [30]: 18 mm2
Activity [31]: 28 mm2
zone of inhibition at 1000 µg/disc [32]: 0 mm
Activity [33]: 9 mm2
Activity [34]: 7 mm2
zone of inhibition at 1000 µg/disc [35]: 10 mm
Activity [36]: 12 mm2
zone of inhibition at 500 µg/disc [37]: 0 mm
Activity [38]: 22 mm2
Activity [39]: 8 mm2
zone of inhibition at 1000 µg/disc [40]: 42 mm
Activity [41]: 19 mm2
zone of inhibition at 500 µg/disc [42]: 26 mm
Activity [43]: 16 mm2
Activity [44]: 8 mm2
zone of inhibition at 500 µg/disc [45]: 0 mm

CCC(C)c1oc(CC(C)O)cc(=O)c1C (configuration not stated) [HYALOPYRONE]
Activity [1]: 11 mm2
zone of inhibition at 500 µg/disc [3]: 10 mm
Activity [4]: 7 mm2
Activity [6]: 5 mm2
zone of inhibition at 500 µg/disc [8]: 12 mm
zone of inhibition at 500 µg/disc [10]: 16 mm
Activity [11]: 5 mm2
zone of inhibition at 500 µg/disc [12]: 0 mm
Activity [13]: 10 mm2
Activity [14]: 15 mm2
Activity [16]: 3 mm2
Activity [17]: 13 mm2
Activity [19]: 7 mm2
Activity [25]: 0 mm2
Activity [28]: 4 mm2
Activity [30]: 18 mm2
Activity [31]: 23 mm2
Activity [33]: 8 mm2
zone of inhibition at 500 µg/disc [37]: 0 mm
Activity [38]: 3 mm2
Activity [39]: 18 mm2
Activity [41]: 5 mm2
zone of inhibition at 500 µg/disc [42]: 0 mm
Activity [43]: 4 mm2
Activity [44]: 6 mm2
zone of inhibition at 500 µg/disc [45]: 12 mm

C[C@H]1OC(=O)/C=C\C(=O)/C=C/[C@H]2O[C@@H]12 [PYRENOLIDE A]
Activity [46]: 0 mm2
Activity [1]: 18 mm2
Activity [47]: 0 mm2
Activity [2]: 0 mm2
zone of inhibition at 500 µg/disc [3]: 0 mm
Activity [4]: 4 mm2
zone of inhibition at 1000 µg/disc [5]: 22 mm
Activity [6]: 1 mm2
Activity [7]: 7 mm2
Activity [48]: 2 mm2
Activity [49]: 2 mm2
zone of inhibition at 500 µg/disc [8]: 22 mm
Activity [50]: 0 mm2
Activity [51]: 3 mm2
zone of inhibition at 1000 µg/disc [9]: 22 mm
zone of inhibition at 500 µg/disc [10]: 21 mm
Activity [52]: 0 mm2
Activity [11]: 3 mm2
zone of inhibition at 500 µg/disc [12]: 0 mm
Activity [13]: 6 mm2
Activity [15]: 0 mm2
Activity [16]: 2 mm2
zone of inhibition at 1000 µg/disc [18]: 32 mm
Activity [20]: 3 mm2
Activity [21]: 5 mm2
zone of inhibition at 1000 µg/disc [22]: 0 mm
Activity [23]: Active
Activity [24]: 0 mm2
Activity [25]: 2 mm2
Activity [53]: 0 mm2
Activity [26]: Active
Activity [27]: 0 mm2
Activity [28]: 13 mm2
Activity [29]: 0 mm2
Activity [30]: 10 mm2
Activity [54]: 0 mm2
zone of inhibition at 1000 µg/disc [32]: 0 mm
Activity [34]: 0 mm2
zone of inhibition at 1000 µg/disc [35]: 0 mm
Activity [36]: 8 mm2
zone of inhibition at 500 µg/disc [37]: 0 mm
zone of inhibition at 1000 µg/disc [40]: 34 mm
zone of inhibition at 500 µg/disc [42]: 4 mm
Activity [44]: 0 mm2
Activity [55]: 0 mm2
zone of inhibition at 500 µg/disc [45]: 16 mm
